Assay results from ChEMBL document CHEMBL4145569, “Hypoxia-Protective Azaphilone Adducts from Peyronellaea glomerata” (J Nat Prod, 2018).

Legend:
[1] = system: HUVEC; assay: (§1) Protection against hypoxia/reoxygenation-induced cell injury in HUVEC assessed as late apoptotic cells at 1 uM treated 1 hr prior to hypoxia induction for 12 hrs followed by compound redosing and subsequent reoxygenation for 3 hrs by annexin-V-FITC/propidium iodide staining based flow cytometric analysis (reference value: 22.8%); format: functional, Homo sapiens
[2] = Antioxidant activity assessed as DPPH radical scavenging activity incubated for 30 mins under dark condition; format: functional
[3] = system: HUVEC; assay: Protection against hypoxia/reoxygenation-induced cell injury in HUVEC assessed as cell viability at 5 uM treated 1 hr prior to hypoxia induction for 12 hrs followed by compound redosing and subsequent reoxygenation for 3 hrs by MTT assay (reference value: 35%); format: functional; conditions: Homo sapiens, read-out: Activity
[4] = Antioxidant activity assessed as ABTS radical scavenging activity incubated for 6 mins under dark condition; format: functional
[5] = system: HUVEC; assay: as §1, with “at 5” for “at 1”; format: functional, Homo sapiens

Structure (SMILES) | Activity [1] | EC50 [2] | viability at 5 µM [3] | EC50 [4] | Activity [5]
CC[C@@H](C)[C@@]12OC(=O)[C@@]3(O)C[C@@H](O1)c1c(cc(O)c(C)c1O)[C@@]23C | 9.8% | 83.5 to 126 µM | 70% | 83.5 to 126 µM | 9.4%
CC[C@@H](C)[C@]12OC(=O)[C@]3(O)C[C@H](O1)c1c(cc(O)c(C)c1O)[C@]23C | – | 83.5 to 126 µM | – | 83.5 to 126 µM | –
